Data from ChEMBL document CHEMBL3217569, “N-(5-substituted thiazol-2-yl)-2-aryl-3-(tetrahydro-2H-pyran-4-yl) propanamides as glucokinase activators” (Medchemcomm, 2011).

Target: T1, Hexokinase-4 (Homo sapiens, UniProt P35557)
T1 sequence (P35557 whole entry): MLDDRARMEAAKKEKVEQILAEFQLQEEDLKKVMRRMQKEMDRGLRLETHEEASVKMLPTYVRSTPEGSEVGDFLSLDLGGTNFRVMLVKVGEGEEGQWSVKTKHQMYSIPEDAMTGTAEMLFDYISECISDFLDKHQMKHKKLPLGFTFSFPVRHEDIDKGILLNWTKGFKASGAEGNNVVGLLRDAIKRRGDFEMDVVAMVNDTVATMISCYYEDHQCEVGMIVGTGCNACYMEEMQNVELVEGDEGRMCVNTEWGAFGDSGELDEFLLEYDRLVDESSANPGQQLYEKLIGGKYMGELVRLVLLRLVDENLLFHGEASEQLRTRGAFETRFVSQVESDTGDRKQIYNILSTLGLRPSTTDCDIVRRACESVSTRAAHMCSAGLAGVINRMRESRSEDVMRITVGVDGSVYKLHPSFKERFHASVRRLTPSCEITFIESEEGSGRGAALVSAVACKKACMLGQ
Test: Activation of recombinant human His6-tagged glucokinase by G6PDH-coupled spectrophotometry

EC50 | Structure (SMILES)
220 nM | O=C(Nc1ncc(-c2cn(CCO)nn2)s1)[C@H](CC1CCOCC1)c1ccc(S(=O)(=O)C2CC2)cc1
1520 nM | COC(=O)[C@H](CC(C)C)NC(=O)c1cnc(NC(=O)C(CC2CCOCC2)c2ccc(S(=O)(=O)C3CC3)cc2)s1 (mixture of isomers)
1440 nM | COC(=O)[C@@H](NC(=O)c1cnc(NC(=O)C(CC2CCOCC2)c2ccc(S(=O)(=O)C3CC3)cc2)s1)C(C)C (mixture of isomers)
11300 nM | CC(C)[C@H](NC(=O)c1cnc(NC(=O)C(CC2CCOCC2)c2ccc(S(=O)(=O)C3CC3)cc2)s1)C(=O)O (mixture of isomers)
> 20000 nM | CC(C)C[C@H](NC(=O)c1cnc(NC(=O)C(CC2CCOCC2)c2ccc(S(=O)(=O)C3CC3)cc2)s1)C(=O)O (mixture of isomers)
520 nM | COC(=O)CCNC(=O)c1cnc(NC(=O)C(CC2CCOCC2)c2ccc(S(=O)(=O)C3CC3)cc2)s1 (racemic)
1800 nM | O=C(O)CCNC(=O)c1cnc(NC(=O)C(CC2CCOCC2)c2ccc(S(=O)(=O)C3CC3)cc2)s1 (racemic)
450 nM | CCOC(=O)CCCn1cc(-c2cnc(NC(=O)C(CC3CCOCC3)c3ccc(S(=O)(=O)C4CC4)cc3)s2)nn1 (racemic)
350 nM | CCOC(=O)CCn1cc(-c2cnc(NC(=O)C(CC3CCOCC3)c3ccc(S(=O)(=O)C4CC4)cc3)s2)nn1 (racemic)
1350 nM | O=C(O)CCn1cc(-c2cnc(NC(=O)C(CC3CCOCC3)c3ccc(S(=O)(=O)C4CC4)cc3)s2)nn1 (racemic)
330 nM | CCOC(=O)Cn1cc(-c2cnc(NC(=O)C(CC3CCOCC3)c3ccc(S(=O)(=O)C4CC4)cc3)s2)nn1 (racemic)
170 nM | CNC(=O)Cn1cc(-c2cnc(NC(=O)C(CC3CCOCC3)c3ccc(S(=O)(=O)C4CC4)cc3)s2)nn1 (racemic)
> 20000 nM | CCNC(=O)Cn1cc(-c2cnc(NC(=O)C(CC3CCOCC3)c3ccc(S(=O)(=O)C4CC4)cc3)s2)nn1 (racemic)
> 20000 nM | O=C(Cn1cc(-c2cnc(NC(=O)C(CC3CCOCC3)c3ccc(S(=O)(=O)C4CC4)cc3)s2)nn1)NC1CC1 (racemic)
300 nM | CN(C)C(=O)Cn1cc(-c2cnc(NC(=O)C(CC3CCOCC3)c3ccc(S(=O)(=O)C4CC4)cc3)s2)nn1 (racemic)
210 nM | CCN(CC)C(=O)Cn1cc(-c2cnc(NC(=O)C(CC3CCOCC3)c3ccc(S(=O)(=O)C4CC4)cc3)s2)nn1 (racemic)
790 nM | CN1CCN(C(=O)Cn2cc(-c3cnc(NC(=O)C(CC4CCOCC4)c4ccc(S(=O)(=O)C5CC5)cc4)s3)nn2)CC1 (racemic)
640 nM | O=C(Nc1ncc(-c2cn(CC(=O)N3CCOCC3)nn2)s1)C(CC1CCOCC1)c1ccc(S(=O)(=O)C2CC2)cc1 (racemic)
290 nM | O=C(Nc1ncc(-c2cn(CCOCc3ccccc3)nn2)s1)C(CC1CCOCC1)c1ccc(S(=O)(=O)C2CC2)cc1 (racemic)
180 nM | O=C(Nc1ncc(-c2cn(CCO)nn2)s1)C(CC1CCOCC1)c1ccc(S(=O)(=O)C2CC2)cc1 (racemic)
